Measurements taken from patent US7563781B2, “Triazolopyrimidine derivatives” (Janssen Pharmaceutica NV, priority 2006, dated 2009).

Key:
[1] = molecular target: T1, Focal Adhesion Kinase (full-length Flag-tagged human FAK) (Homo sapiens, UniProt Q05397); assay: in vitro FAK ELISA kinase assay; format: biochemical; settings: compound 10 uM; ATP 2 uM; read-out: FAK % Inhib ave: 10 uM
T1 construct: a purified recombinant full-length Flag-tagged human FAK protein; Flag; made in house; host or cells: baculovirus infected insect cells
Procedure, shortened: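 Plate-coated GST fusion of the 73-residue region around Tyr397 phosphorylated by full-length Flag-tagged human FAK from baculovirus-infected insect cells, with 2 μM ATP in Mg/Mn HEPES pH 7.5, 1 h at 30 °C. Phosphotyrosine detected by HRP-anti-pTyr ELISA with TMB read-out. Compounds screened at 10 μM or titrated from 50 μM in half-log steps for IC50, BSA-substrate background subtracted.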

[2] = molecular target: T2, CAK complex (human Cdk7, human Cyclin H, MAT-1) (Homo sapiens, UniProt P50613); assay: in vitro time-resolved-fluorescence assay for the CAK kinase activity; format: biochemical; settings: compound 20 uM; read-out: CAK % inhib; 20 uM
T2 construct: made in house; host or cells: SF-900 insect cells co-infected with Flag-Cdk7 and Bab-Cyclin H baculoviruses
Procedure, shortened: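 Kinase activity of the human CAK complex (Flag-tagged Cdk7, Cyclin H, MAT-1), purified from co-infected SF-900 insect cells by Flag-M2 immunoaffinity, was measured by time-resolved fluorescence. In black glutathione-coated 96-well plates, 500 ng GST-CTD substrate with 22 uM ATP was mixed with compound in 30% DMSO/25 mM Hepes and 250 ng CAK. Plates were incubated 20 minutes at 30° C, then stopped with EDTA, bound overnight and washed. A Europium-labeled antibody detected serine-phosphorylated CTD.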

T2 sequence (P50613 with tags, fused parts or gaps): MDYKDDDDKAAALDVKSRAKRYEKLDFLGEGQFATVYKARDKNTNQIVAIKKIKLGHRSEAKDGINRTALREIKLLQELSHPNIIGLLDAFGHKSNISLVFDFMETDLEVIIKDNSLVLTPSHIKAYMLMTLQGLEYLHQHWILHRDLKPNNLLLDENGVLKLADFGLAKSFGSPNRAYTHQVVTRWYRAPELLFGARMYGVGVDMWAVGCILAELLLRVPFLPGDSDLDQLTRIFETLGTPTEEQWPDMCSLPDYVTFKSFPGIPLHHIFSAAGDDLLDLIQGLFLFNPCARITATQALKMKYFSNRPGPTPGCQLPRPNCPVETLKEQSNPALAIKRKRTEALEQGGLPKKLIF
T2 sequence (as listed by the source partner): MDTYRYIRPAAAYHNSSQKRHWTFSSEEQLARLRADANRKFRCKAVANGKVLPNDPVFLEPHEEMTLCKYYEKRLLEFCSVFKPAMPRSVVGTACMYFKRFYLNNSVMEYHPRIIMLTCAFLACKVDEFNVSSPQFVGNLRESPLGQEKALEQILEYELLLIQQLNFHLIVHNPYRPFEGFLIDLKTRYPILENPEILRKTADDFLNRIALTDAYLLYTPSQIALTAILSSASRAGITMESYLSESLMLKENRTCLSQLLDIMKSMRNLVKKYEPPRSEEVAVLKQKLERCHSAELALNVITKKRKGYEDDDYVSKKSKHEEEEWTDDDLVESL
T1 sequence (Q05397 whole entry): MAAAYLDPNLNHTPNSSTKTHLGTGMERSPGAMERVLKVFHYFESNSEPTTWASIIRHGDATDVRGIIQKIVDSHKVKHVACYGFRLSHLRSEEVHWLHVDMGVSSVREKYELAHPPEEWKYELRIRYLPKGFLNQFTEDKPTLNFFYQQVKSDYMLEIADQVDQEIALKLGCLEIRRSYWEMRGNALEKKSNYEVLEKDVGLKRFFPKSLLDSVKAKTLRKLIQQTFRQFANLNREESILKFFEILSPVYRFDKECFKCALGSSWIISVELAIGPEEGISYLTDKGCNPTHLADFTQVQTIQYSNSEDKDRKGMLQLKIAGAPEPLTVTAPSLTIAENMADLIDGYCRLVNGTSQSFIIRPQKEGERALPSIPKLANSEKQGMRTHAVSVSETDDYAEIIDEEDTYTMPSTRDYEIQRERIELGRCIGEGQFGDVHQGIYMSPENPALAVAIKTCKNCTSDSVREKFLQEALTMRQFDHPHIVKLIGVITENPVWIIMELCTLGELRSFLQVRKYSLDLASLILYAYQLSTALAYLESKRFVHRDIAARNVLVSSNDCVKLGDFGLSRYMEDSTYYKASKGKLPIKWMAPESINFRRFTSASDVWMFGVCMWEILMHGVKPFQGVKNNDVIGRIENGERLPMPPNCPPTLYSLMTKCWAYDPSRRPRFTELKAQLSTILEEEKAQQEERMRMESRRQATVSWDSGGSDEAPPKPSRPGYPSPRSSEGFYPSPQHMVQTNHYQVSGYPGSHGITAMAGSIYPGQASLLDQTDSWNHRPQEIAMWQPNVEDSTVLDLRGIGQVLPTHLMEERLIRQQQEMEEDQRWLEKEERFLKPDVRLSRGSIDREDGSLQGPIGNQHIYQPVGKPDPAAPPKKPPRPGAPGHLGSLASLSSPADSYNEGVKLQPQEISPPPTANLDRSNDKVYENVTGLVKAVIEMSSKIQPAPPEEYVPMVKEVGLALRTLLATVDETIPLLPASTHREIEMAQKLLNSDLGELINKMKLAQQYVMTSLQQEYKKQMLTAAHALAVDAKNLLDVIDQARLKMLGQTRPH

Row | inhibition at 10 µM [1] [%] | inhibition at 20 µM [2] [%] | SMILES
1 | 75.5 | 87.3 | CCN(CC)CCNC(=O)c1ccc(Nc2ncc3nnn(-c4ccc(N5CCN(Cc6ccccc6)CC5)cc4)c3n2)cc1 [Compound 56, 4-{3-[4-(4-Benzyl-piperazin-1-yl)-phenyl]-3H-[1,2,3]triazolo[4,5-d]pyrimidin-5-ylamino}-N-(2-diethylamino-ethyl)-benzamide]
2 | 22 | 34.1 | CCCCNS(=O)(=O)c1cccc(Nc2ncc3nnn(Cc4ccccc4)c3n2)c1 [Compound 57]
3 | 59 | 58 | CCN(CC)CCNC(=O)c1ccc(Nc2ncc3nnn(Cc4ccccc4)c3n2)cc1 [Compound 58, 4-(3-Benzyl-3H-[1,2,3]triazolo[4,5-d]pyrimidin-5-ylamino)-N-(2-diethylamino-ethyl)-benzamide]
4 | 25 | 47 | c1ccc(CN2CCN(c3ccc(Nc4ncc5nnn(Cc6ccccc6)c5n4)cc3)CC2)cc1 [Compound 59, [4-(4-Benzyl-piperazin-1-yl)-phenyl]-(3-benzyl-3H-[1,2,3]triazolo[4,5-d]pyrimidin-5-yl)-amine]
5 | 26.8 | -0.99 | c1cc(Nc2ncc3nnn(C4CCc5ccccc54)c3n2)cc(-c2nnn[nH]2)c1 (stereo not shown) [Compound 60, (3-Indan-1-yl-3H-[1,2,3]triazolo[4,5-d]pyrimidin-5-yl)-[3-(1H-tetrazol-5-yl)-phenyl]-amine]
6 | 85.5 | 79.4 | CCN(CC)CCNC(=O)c1ccc(Nc2ncc3nnn(C4CCc5ccccc54)c3n2)cc1 (stereo not shown) [Compound 61, N-(2-Diethylamino-ethyl)-4-(3-indan-1-yl-3H-[1,2,3]triazolo[4,5-d]pyrimidin-5-ylamino)-benzamide]
7 | 66.7 | 45.3 | CCN(CC)CCNC(=O)c1ccc(Nc2ncc3nnn(-c4cccc(-c5nnn[nH]5)c4)c3n2)cc1 [Compound 62, N-(2-Diethylamino-ethyl)-4-{3-[3-(1H-tetrazol-5-yl)-phenyl]-3H-[1,2,3]triazolo[4,5-d]pyrimidin-5-ylamino}-benzamide]
8 | 59.8 | 39.3 | CCOC(=O)N1CCC(n2nnc3cnc(Nc4cccc(-c5nnn[nH]5)c4)nc32)CC1 [Compound 63, 4-{5-[3-(1H-Tetrazol-5-yl)-phenylamino]-[1,2,3]triazolo[4,5-d]pyrimidin-3-yl}-piperidine-1-carboxylic acid ethyl ester]
9 | 29.1 | 33.9 | CCOC(=O)N1CCC(n2nnc3cnc(Nc4ccc(C(=O)NCCN(CC)CC)cc4)nc32)CC1 [Compound 64, 4-{5-[4-(2-Diethylamino-ethylcarbamoyl)-phenylamino]-[1,2,3]triazolo[4,5-d]pyrimidin-3-yl}-piperidine-1-carboxylic acid ethyl ester]
10 | 54.7 | 42.7 | CCN(CC)CCNC(=O)c1ccc(-n2nnc3cnc(Nc4cccc(-c5nnn[nH]5)c4)nc32)cc1 [Compound 65, N-(2-Diethylamino-ethyl)-4-{5-[3-(1H-tetrazol-5-yl)-phenylamino]-[1,2,3]triazolo[4,5-d]pyrimidin-3-yl}-benzamide]
11 | 87.2 | 68.1 | CCN(CC)CCNC(=O)c1ccc(Nc2ncc3nnn(-c4cc[nH]n4)c3n2)cc1 [Compound 66]
12 | 15.4 | 44.2 | c1cc(Nc2ncc3nnn(C4CCCC4)c3n2)cc(-c2nnn[nH]2)c1 [Compound 67, (3-Cyclopentyl-3H-[1,2,3]triazolo[4,5-d]pyrimidin-5-yl)-[3-(1H-tetrazol-5-yl)-phenyl]-amine]
13 | 56.5 | 63.8 | CCN(CC)CCNC(=O)c1ccc(Nc2ncc3nnn(C4CCCC4)c3n2)cc1 [Compound 68, 4-(3-Cyclopentyl-3H-[1,2,3]triazolo[4,5-d]pyrimidin-5-ylamino)-N-(2-diethylamino-ethyl)-benzamide]
14 | 27 | -11.4 | CCN(CC)CCNC(=O)c1ccc(Nc2ncc3nnn(Cc4ccc(N(C)C)cc4)c3n2)cc1 [Compound 69, N-(2-Diethylamino-ethyl)-4-[3-(4-dimethylamino-benzyl)-3H-[1,2,3]triazolo[4,5-d]pyrimidin-5-ylamino]-benzamide]
15 | 15 | 21 | CCN(CC)CCNC(=O)c1ccc(Nc2ncc3nnn([C@@H](CO)[C@@H](O)c4ccccc4)c3n2)cc1 [Compound 70, N-(2-Diethylamino-ethyl)-4-[3-(2-hydroxy-1-hydroxymethyl-2-phenyl-ethyl)-3H-[1,2,3]triazolo[4,5-d]pyrimidin-5-ylamino]-benzamide]
16 | 27.5 | 52.8 | CCN(CC)CCNC(=O)c1ccc(Nc2ncc3nnn(Cc4nc5ccccc5[nH]4)c3n2)cc1 [Compound 71, 4-[3-(1H-Benzoimidazol-2-ylmethyl)-3H-[1,2,3]triazolo[4,5-d]pyrimidin-5-ylamino]-N-(2-diethylamino-ethyl)-benzamide]
17 | 81.5 | 98.4 | O=C(NCCCN1CCCC1)c1cccc(Nc2ncc3nnn(-c4ccc5c(c4)CCC5)c3n2)c1 [Compound 72, 3-(3-Indan-5-yl-3H-[1,2,3]triazolo[4,5-d]pyrimidin-5-ylamino)-N-(3-pyrrolidin-1-yl-propyl)-benzamide]
18 | 31.2 | 47.5 | O=C(NCCN1CCOCC1)c1cccc(Nc2ncc3nnn(-c4ccc5c(c4)CCC5)c3n2)c1 [Compound 73, 3-(3-Indan-5-yl-3H-[1,2,3]triazolo[4,5-d]pyrimidin-5-ylamino)-N-(2-morpholin-4-yl-ethyl)-benzamide]
19 | 72.8 | 42.7 | O=C(NCCCn1ccnc1)c1ccc(Nc2ncc3nnn(-c4ccc5c(c4)CCC5)c3n2)cc1 [Compound 74, N-(3-Imidazol-1-yl-propyl)-4-(3-indan-5-yl-3H-[1,2,3]triazolo[4,5-d]pyrimidin-5-ylamino)-benzamide]
20 | 77.9 | 84 | O=C(NCCCN1CCCC1)c1ccc(Nc2ncc3nnn(-c4ccc5c(c4)CCC5)c3n2)cc1 [Compound 75, 4-(3-Indan-5-yl-3H-[1,2,3]triazolo[4,5-d]pyrimidin-5-ylamino)-N-(3-pyrrolidin-1-yl-propyl)-benzamide]
21 | 34.7 | 10.2 | O=C(NCCN1CCOCC1)c1ccc(Nc2ncc3nnn(-c4ccc5c(c4)CCC5)c3n2)cc1 [Compound 76, 4-(3-Indan-5-yl-3H-[1,2,3]triazolo[4,5-d]pyrimidin-5-ylamino)-N-(2-morpholin-4-yl-ethyl)-benzamide]
22 | 54.2 | 72.1 | O=C(NCCCN1CCCC1=O)c1ccc(Nc2ncc3nnn(-c4ccc5c(c4)CCC5)c3n2)cc1 [Compound 77, 4-(3-Indan-5-yl-3H-[1,2,3]triazolo[4,5-d]pyrimidin-5-ylamino)-N-[3-(2-oxo-pyrrolidin-1-yl)-propyl]-benzamide]
23 | 72 | 89 | CN1CCN(CCCNC(=O)c2ccc(Nc3ncc4nnn(-c5ccc6c(c5)CCC6)c4n3)cc2)CC1 [Compound 78, 4-(3-Indan-5-yl-3H-[1,2,3]triazolo[4,5-d]pyrimidin-5-ylamino)-N-[3-(4-methyl-piperazin-1-yl)-propyl]-benzamide]
